Experimental data reported in patent US20240132559A1, “COMPOSITIONS AND METHODS FOR MODULATING MYC EXPRESSION” (FLAGSHIP PIONEERING INNOVATIONS V, INC., priority 2020, published 2024).

How the values were obtained:
SKHEP1 and Hep 3B cells = test: IC50 of sorafenib or JQ1 in combination with bi-cistronic ZF9-MQ1_ZF3-KRAB; type: cell-based, human; conditions: for IC50 of sorafenib: in combination with 0.1 ug/ml bi-cistronic ZF9-MQ1_ZF3-KRAB; for IC50: Homo sapiens
SK-HEP-1 cells = test: Sorafenib dose response viability with bi-cistronic ZF9-MQ1_ZF3-KRAB (CellTiter-GLO); type: cell-based; conditions: Homo sapiens, SK-HEP1, 72 h, SKHEP-1, 72-hour
Procedure: (§1) In this example, the effect of bi-cistronic ZF9-MQ1_ZF3-KRAB on the small molecule sorafenib (multi-kinase inhibitor) efficacy in HCC cell lines was evaluated. Sorafenib is used as a standard of care in HCC and high MYC levels can predict sorafenib resistance. It was hypothesized that bi-cistronic ZF9-MQ1_ZF3-KRAB may re-sensitize HCC to sorafenib through its downregulation of MYC. Dose response assays were utilized to evaluate if bi-cistronic ZF9-MQ1_ZF3-KRAB treatment could decrease the IC50 of sorafenib.
(§2) To evaluate potential synergy between bi-cistronic ZF9-MQ1_ZF3-KRAB and sorafenib, Hep 3B or SK-HEP-1 cells were plated in 96 well plates at 10,000 cells per well. Cells were then treated with sorafenib at a dose range between 0.1 and 25 μM, with serial dilution of 1:2. Lipid mix carrying bi-cistronic ZF9-MQ1_ZF3-KRAB was then added to a subset of the wells at a dose of 0.1 or 0.6 μg/mL. A set of cells was treated with sorafenib alone to use as control. Following 72-hour treatment, cells were lysed with the CellTiter-GLO® reagent and luminescence was quantified using the Glo Max. Relative cell viability was calculated by averaging the untreated values and dividing each experimental luciferase value by that average.

Hep 3B cells = test: as above; type: cell-based; conditions: Homo sapiens, Hep3B, 72 h
Procedure: as §1, §2

subcutaneous H460 tumors = test: H460 subcutaneous tumor model in nude mice; type: in vivo, mouse; conditions: 50 mg/kg daily
Procedure: Disease was induced in nude mice by the implantation of subcutaneous H460 tumor cells into the left flank. Treatment was initiated when mean tumor volume reached approximately 100-150 mm^3. Mice were divided into treatment groups so that mean tumor volume in each group were approximately equal. Tumors were treated with PBS (vehicle), sorafenib (standard of care), non-coding RNA formulated in MC3 LNPs, or ZF9-MQ1 mRNA formulated in MC3 LNPs. PBS, Non-coding RNA (SEQ ID NO: 198) LNP and ZF9-MQ1 LNP were dosed at 3 mg/kg administered every five days. Sorafenib was dosed daily at 50 mg/kg. The length and width of tumors were measured twice weekly. Tumor volumes were calculated as (width^2×length)/2.

[1] = bi-cistronic ZF9-MQ1_ZF3-KRAB 0 μg/ml
[2] = bi-cistronic ZF9-MQ1_ZF3-KRAB 0.1 μg/ml
[3] = bi-cistronic ZF9-MQ1_ZF3-KRAB 0.6 μg/ml

IC50 of sorafenib (SKHEP1 and Hep 3B cells; Hep 3B): did not change significantly
IC50 (SKHEP1 and Hep 3B cells; Hep3B, Hep 3B, in combination with 0.6 ug/ml bi-cistronic ZF9-MQ1_ZF3-KRAB): 2.9 µM
IC50 (SKHEP1 and Hep 3B cells; Hep3B, Hep 3B, sorafenib without bi-cistronic ZF9-MQ1_ZF3-KRAB): 4.4 µM
IC50 (SKHEP1 and Hep 3B cells; SK-HEP1, SKHEP1, in combination with 0.6 ug/ml bi-cistronic ZF9-MQ1_ZF3-KRAB): 10.7 µM
IC50 (SKHEP1 and Hep 3B cells; SK-HEP1, SKHEP1, sorafenib without bi-cistronic ZF9-MQ1_ZF3-KRAB): 12.3 µM
IC50 of sorafenib (SKHEP1 and Hep 3B cells; SKHEP1): did not change significantly
IC50 (SK-HEP-1 cells; [1]): 12.3 µM
IC50 (SK-HEP-1 cells; [2]): 12.3 µM
IC50 (SK-HEP-1 cells; [3]): 10.7 µM
Structure (SMILES): CNC(=O)c1cc(Oc2ccc(NC(=O)Nc3ccc(Cl)c(C(F)(F)F)c3)cc2)ccn1 [sorafenib]
IC50 (Hep 3B cells; [1]): 4.4 µM
IC50 (Hep 3B cells; [2]): 4.25 µM
IC50 (Hep 3B cells; [3]): 2.9 µM
average tumor volume at the study termination (subcutaneous H460 tumors): 752 mm^3
